Test results reported in US5488049A, “Method of treating learning and memory disorders using benzothiadiazide derivatives as nootropic agents” (FIDIA - Georgetown Institute for the Neuro-Sciences, priority 1993, dated 1996).
“Also recorded” adds a separate entry of the source.

Experiments:
AMPA receptor = assay: Fast application with double barrel pipette: AMPA receptor desensitization in outside-out patches from CAl hippocampal pyramidal neurons; format: cell-based, rat; conditions: comparison compound, lower dose than IDRA 21, concentration not given
Procedure: (§1) Young rats (12-16 days old) were decapitated and the brains quickly removed and placed in ice-cold Ringer solution. Thin slices of hippocampus (250 μm) were then cut with a vibratome slicer (Lancer, St. Louis, Mo.) and kept in Ringer solution at 37° C. until use. The experiments were carried out at room temperature with the slice totally submerged in a 1 ml volume recording chamber and under continuous perfusion with Ringer solution at a rate of 6 ml/min using an upright Hoffman modulation contrast microscope (Carl Zeiss, Germany) equipped with a 40×water immersion objective.
(§2) Media and drug application. The external Ringer solution contained (in mM): NaCl 120; KCl 3.1; CaCl2 2; MgCl2 1; KH2 PO4 1; NaHCO3 26; glucose 2.7; and it was continuously bubbled with 95% O2 and 5% CO2. Patch pipettes were filled with a solution containing (in mM): K-gluconate 140; MgCl2 1; ATP.Mg 2; EGTA 0.5; HEPES-KOH 10, pH 7.2. All the drugs under investigation were applied through the recording chamber perfusion system via parallel inputs having a common entry into the chamber. Agonist application was attained using two different systems that allowed a slow or a rapid solution change. Slow solution changes were used during recordings in whole-cell configuration and were obtained by exchanging the solution of the recording chamber within a few seconds. Fast solution changes were obtained with the use of the Y-shaped tubing method that allows complete exchange of solution in less than 10 ms, and is described in detail by Murase et al. (1989).
Briefly, a polyethylene tubing (1 mm i.d.) is bent in a U-shaped, and another fine polyethylene tubing (50 μi.d.) and 10 mm length) is inserted into a small hole in the U-tubing making the tip of the Y-tubing. Solutions are fed to the Y-tubing by gravity, and negative pressure facilitates exchange of the solution. The tip of the Y-tubing is positioned 100 μm from the cell investigated, and upon opening and closing of a valve that controls the negative pressure, it was possible to respectively change rapidly and apply a number of different test solutions. This method was used to apply agonists to excised outside-out membrane patches. More rapid drug applications were used to apply agonists to excised outside-out membrane patches, and were obtained through a double-barrelled pipette positioned close to the recording pipette containing the membrane patch. […] The agonist was applied for a period of 150 ms and the time necessary for a complete exchange of the solution was less than 1 ms as measured at the opening of a patch pipette containing different dilutions of the drugs under study. […]
Ionic currents in whole-cell configuration and outside-out excised membrane patches were monitored using the patch clamp technique (15). […]

[1] = system: kainate-activated current; assay: Selectivity: ionic current elicited by 20 μM kainate; format: cell-based, rat
Procedure: as §1, §2
(§3) Ionic currents in whole-cell configuration and outside-out excised membrane patches were monitored using the patch clamp technique (15).

[2] = system: EPSCs elicited in CAl pyramidal neurons; assay: Excitatory postsynaptic currents (EPSCs) in CAl pyramidal neurons in hippocampal slices on stimulation of Schaffer collateral afferents; format: cell-based, rat; conditions: in vitro; compared with (+) IDRA 21
Procedure: as §1, §3
Traces were filtered at 3 KHz (-3 dB, 8-pole, lowpass Bessel filter, Frequency Devices), and stored in an LSI 11/73 computer (INDEC System, Sunnyvale, Calif.) after digitization (10 KHz) with a Data Translation analog to digital converter. Decay time constants of EPSC and glutamate-activated currents were determined from exponential fitting with the 11/73 system by using an entirely automated least-squares procedures (see Vicini and Schuetze, 1985, for further details). This method uses a Simplex algorithm (Caceci and Cacheris, 1984) to fit the data to either a single or double exponential equation of the form I(t)=If exp(-t/tauf)+Is exp(-t/taus), where If and Is are the amplitudes of the sIPSC fast and slow components, and tauf and taus are their respective decay time constants. Peak amplitudes were measured at the absolute maximum of the currents, taking into account the noise of the baseline and noise around the peak. Rise times were measured as the time elapsed from 20 to 80% of the peak amplitude of the response.
The action of nootropic drugs on the excitatory postsynaptic currents (EPSCs) elicited in CAl pyramidal neurons in hippocampal slices was investigated by stimulation of the Schaffer collateral afferents.

rats [3] = assay: Water maze: drug action on alprazolam-disrupted learning behavior in rats; format: in vivo, rat
Procedure: Rats (male 250 g b.w.) were trained two days, once a day, in maze A (See insert A). […] Rats were exposed to a new maze configuration (Maze B) in 4 successive trials 15, 30, 45, and 60 min after the i.p. injections.
The water maze apparatus was adapted from Kant et al., (16), and consists of three concentric squares placed inside a 5 ft plastic pool (FIG. 6). The walls of the maze are 50 cm in height and are constructed from black opaque plastic to allow for tracking of the animal with an overhead camera. The alleys between the walls are 16 cm wide. In the center of each wall there is a removable doorway. The opening of doorways allows for the construction of mazes with an increasing number of potential error possibilities. (See diagram for Maze A and Maze B, FIG. 6). The maze is located in a room 10'×15' at constant temperature (18° C.) adjacent to the vivarium. The room is illuminated with overhead lights which also serve as spatial cues. Additional spatial cues are provided by the position of the investigator and a number of small white x's placed within specific locations upon the walls of the maze. The maze is filled with water (18°)C. to a depth of 25 cm.
Seven days prior to drug studies, rats were tested in Maze A (forced maze) on two consecutive days. Pretesting with the "forced" maze enabled the assessment of the animals' general motor, sensory and motivational abilities, and facilitated the exclusion of those animals unable to meet pretesting criteria. Performance was assessed by determining either swim time, errors committed, or path length measured with a computerized recording device. Errors are defined as whole body entry into alleys not leading directly to the exit platform (i.e., shaded portions in FIG. 6). Rats were excluded from the study if their swim path length and/or number of errors were two standard deviations above the mean […] of the entire group. During the first two trials, the rats were placed into the center of the maze and given a maximum of 180 secs to find the "exit platform" located at the "finish" (FIG. 6). The time required, the number of errors, and the path length were recorded for each trial. […] Rats meeting the criteria were randomly divided into groups. On the day of the experiment, a single trial was run (Maze A) in order to establish a baseline of performance. Following drug administration, the rats were again tested once on Maze A to establish a baseline of post-treatment performance. Following an additional interatrial interval of 30 min., the rats were tested on Maze B.
In these experiments, rats were trained in Maze B 15, 30, 45 and 60 min. after drug injection.

[4] = Entry into the brain (inferred from in vivo activity); conditions: inferred ("presumably") from in vivo activity or lack of it
GABAA receptors = assay: Preliminary electrophysiological and biochemical radiolabeled binding studies on GABAA receptors
Pacata monkeys = assay: Preliminary experiments in Pacata monkeys: working memory; format: in vivo
Source text: The present IDRAcompounds are useful for enhancing both short-term memory, long-term memory, and cognitive performance in man. […]. As a result, the compounds of the present invention are useful as therapeutic agents in memory impairment, e.g., due to toxicant exposure, brain injury, epilepsy, mental retardation in children and senile dementia, including Alzheimer's disease.

rats [5] = assay: Water maze: drug action on alprazolam-disrupted learning behavior in rats; format: in vivo, rat; conditions: oral 5 mg/kg
Gross animal behavior = conditions: at effective doses

SMILES	removal of glutamate-induced desensitization (AMPA receptor)	effect on kainate-activated current ([1]; 40 μM compound, 20 μM kainate)	effect on kainate responses at doses that decreased AMPA desensitization ([1]; all doses that decrease/inhibit AMPA desensitization)	efficacy in increasing excitatory synaptic strength in CAl pyramidal neurons [2]	antagonism of alprazolam amnesic effect (rats [3]; doses equimolar to IDRA 21 / (+) IDRA 21)	brain uptake [4]	disruptive action of alprazolam (rats [3]; discussion statement)	dose dependence of learning and memory enhancing effect (rats [3]; rat, in vivo)	duration of learning and memory enhancing effect (rats [3]; rat, in vivo) [h]	biological activity of enantiomers (summary) (rats [3]; summary statement)	direct action on GABAA receptors (GABAA receptors)	working memory enhancement (Pacata monkeys)	potency vs racemate in preventing alprazolam-induced amnesia (rats [5])	prevention of alprazolam-induced amnesia (enantiomers) (rats [5])	effect on gross animal behavior (exploratory behavior, stereotypy, ataxia, posture) (Gross animal behavior)
NS(=O)(=O)c1cc2c(cc1Cl)NC(C1CC3C=CC1C3)NS2(=O)=O (stereo not shown) [cyclothiazide, reference compound]	completely removed the desensitization induced by glutamate	increased the current	potently potentiated kainate responses	at least as efficacious as (+) IDRA 21	unable to antagonize alprazolam-induced impairment of learning behavior	fail to enter the brain									
CC1Nc2ccc(Cl)cc2S(=O)(=O)N1 (single isomer, unassigned; (+)) [(+) IDRA 21]						taken up by the brain in a sufficient quantity to produce learning and memory enhancing effects	antagonizes the disruptive action of alprazolam	dose-dependent	> 1	biologically active	fails to act directly on GABAA receptors	very potent in enhancing working memory	significantly more potent than (±) IDRA; also recorded: more potent that (±) IDRA 21	active in preventing alprazolam-induced amnesia in rats	no changes in exploratory behavior, stereotypy, ataxia, posture, etc.
